# Experimental data taken from US20200032271A1, “COMBINATION THERAPY WITH LIPOSOMAL ANTISENSE OLIGONUCLEOTIDES” (Bio-Path Holdings, Inc., priority 2016, published 2020).
# Where “and” joins values, the source holds several entries; their conditions need not be identical. Equal values may be shown once. [PEt] = P-ethoxy (ethyl phosphotriester) internucleoside linkage
# System: peripheral blood and bone marrow blasts
# Assay: Anti-leukemia activity in patients (peripheral blood and bone marrow blasts, response)
# Type: in vivo, human
# Conditions: for Bone marrow blasts (%) Nadir / Bone marrow blasts (%) Off-Rx / Peripheral blood blasts (%) Off-Rx / Peripheral blood blasts (%) Nadir: individual evaluable patients
# Method: Peripheral blood assessments were done at baseline (within 14 days of study start), and on days 1, 8, 15, 22, at completion of cycle one, and as clinically indicated. Bone marrow assessments were done at baseline (within 14 days of study start), at completion of cycle one, cycle 2, and as clinically indicated. Baseline cytogenetics data were obtained before treatment. Molecular analysis was conducted to detect somatic mutations on the baseline bone marrow.
# BP1001, as a single agent therapy, decreased >50% peripheral blood blasts in 9 of 21 patients, and decreased >50% bone marrow blasts in 3 of 21 patients (Table 8). […] Four patients completed 2 cycles of treatment and three patients completed 5 cycles of treatment (Table 8). These seven patients had diverse cytogenetics and molecular abnormalities such as JAK2 and NRAS mutations (Table 8). […]
# [1] = of 21 evaluable patients, single agent
substance,measurement,setting,value
"BP1001: liposome-incorporated P-ethoxy antisense oligodeoxynucleotide (5′-ATATTTGGCGATGGCTTC-3′, SEQ ID NO: 1) specific to grb2 mRNA, in neutral DOPC liposomes (DNA, all [PEt], methylation of C not given here; incorporated in neutral DOPC liposomes)",Bone marrow blasts (%) Nadir,"5 mg/m^2, no Ara-C",10% and 4%
same,Bone marrow blasts (%) Off-Rx,"5 mg/m^2, no Ara-C",10% and 6%
same,Peripheral blood blasts (%) Off-Rx,"5 mg/m^2, no Ara-C",1% and 50% and 21% and 97% and 5% and 0%
same,Bone marrow blasts (%) Nadir,"10 mg/m^2, no Ara-C",76% and None and 38%
same,Bone marrow blasts (%) Off-Rx,"10 mg/m^2, no Ara-C",76% and 80% and 38%
same,Peripheral blood blasts (%) Nadir,"10 mg/m^2, no Ara-C",31% and 5% and 43%
same,Peripheral blood blasts (%) Off-Rx,"10 mg/m^2, no Ara-C",72% and 63% and 74%
same,Bone marrow blasts (%) Nadir,"20 mg/m^2, no Ara-C",3%
same,Peripheral blood blasts (%) Nadir,"20 mg/m^2, no Ara-C",0%
same,Peripheral blood blasts (%) Off-Rx,"20 mg/m^2, no Ara-C",1% and 0%
same,Bone marrow blasts (%) Nadir,"40 mg/m^2, no Ara-C",None (2×) and 54%
same,Bone marrow blasts (%) Off-Rx,"40 mg/m^2, no Ara-C",36% and 80%
same,Peripheral blood blasts (%) Nadir,"40 mg/m^2, no Ara-C",3% and None (2×)
same,Peripheral blood blasts (%) Off-Rx,"40 mg/m^2, no Ara-C",19% and 80% and 97%
same,Bone marrow blasts (%) Nadir,"60 mg/m^2, no Ara-C",88% and None
same,Bone marrow blasts (%) Off-Rx,"60 mg/m^2, no Ara-C",88% and 92%
same,Peripheral blood blasts (%) Nadir,"60 mg/m^2, no Ara-C",93% and 7% and 17%
same,Peripheral blood blasts (%) Off-Rx,"60 mg/m^2, no Ara-C",98% and 24% and 82%
same,Bone marrow blasts (%) Nadir,"90 mg/m^2, no Ara-C",None and 22%
same,Bone marrow blasts (%) Off-Rx,"90 mg/m^2, no Ara-C",17% and 22%
same,Peripheral blood blasts (%) Nadir,"90 mg/m^2, no Ara-C",0% and None (2×)
same,Peripheral blood blasts (%) Off-Rx,"90 mg/m^2, no Ara-C",0% and 42% and 92%
same,Peripheral blood blasts (%) Nadir,"BP1001 5 mg/m^2, no Ara-C",0% (2×) and 7% and 5% and 82% and 2%
same,patients with improvement of leukemia cutis,[1],two
same,patients with transient decline in blasts,[1],six
same,patients with ≥50% reduction in peripheral or bone marrow blasts,"of 21 evaluable patients, single agent (Part A)",10
same,peripheral blasts after four BP1001 infusions,"one CML blast crisis patient with T315I, from 81%",5%
same,patients with >50% decrease of bone marrow blasts,single agent therapy,3 of 21
same,patients with >50% decrease of peripheral blood blasts,single agent therapy,9 of 21
